Measurements taken from BindingDB's records for patent US20250092022 (Neurocrine Biosciences, 2025).

biological target: T1, Muscarinic acetylcholine receptor M4 (Homo sapiens, UniProt P08173); assay: Binding Assay
T1 sequence (P08173 whole entry): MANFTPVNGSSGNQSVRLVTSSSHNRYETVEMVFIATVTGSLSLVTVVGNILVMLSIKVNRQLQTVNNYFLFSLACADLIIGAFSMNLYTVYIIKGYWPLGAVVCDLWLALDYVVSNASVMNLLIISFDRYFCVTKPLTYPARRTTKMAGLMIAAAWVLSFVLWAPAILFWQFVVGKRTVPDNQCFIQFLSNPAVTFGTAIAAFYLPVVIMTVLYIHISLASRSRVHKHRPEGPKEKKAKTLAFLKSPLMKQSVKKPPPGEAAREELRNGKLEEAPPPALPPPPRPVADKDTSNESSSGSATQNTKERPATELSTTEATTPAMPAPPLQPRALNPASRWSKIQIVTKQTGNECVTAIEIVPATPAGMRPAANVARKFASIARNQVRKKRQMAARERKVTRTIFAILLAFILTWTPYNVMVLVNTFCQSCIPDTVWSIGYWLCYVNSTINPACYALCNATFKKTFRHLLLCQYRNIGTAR
Protocol: Binding affinity (Ki) for the compounds was measured by inhibition of radioligand binding to membranes from CHO cells expressing human M4 receptor. Membranes were prepared by nitrogen cavitation and differential centrifugation as previously described (Hoare et al., Mol. Pharmacol. 2003 March; 63(3): 751-65). The radioligand employed was tritiated N-methylscopolamine, used at a concentration of 1.5 nM. A dose-response of twelve concentrations of compound was used, […]. The assay buffer was 50 mM HEPES, 100 mM NaCl, 5 mM MgCl2, 1 mM ethylenediaminetetraacetic acid, pH-adjusted to pH 7.4. Membranes, radioligand and compound were incubated together for 90 minutes at 37° C., in a total volume of 150 μL in a 96-well plate. Receptor-bound radioligand was then collected by harvesting the assay over glass fiber filters pretreated with polyethylenimine to trap the cell membranes, using rapid vacuum filtration. Harvesting and radioactivity counting was conducted as previously described (see, e.g., Hoare et al., Mol. Pharmacol. 2003 63(3):751-65); Erratum at Mol. Pharmacol. 2005 July; 68(1): 260).

Row | Ki [nM] | SMILES
1 | < 100 | C[C@@H]1CN(c2ncc(S(=O)(=O)C3CC3)cn2)C[C@@H](C)N1C(=O)OC1CC2(C1)CN(Cc1ccccc1)C2 [US20250092022, Compound 19]
2 | < 100 | Cc1nc(N2C[C@@H](C)N(C(=O)OC3CC4(C3)CN(Cc3ccccc3)C4)[C@@H](C)C2)ncc1S(C)(=O)=O [US20250092022, Compound 40]
3 | < 100 | C[C@@H]1CN(c2ncc(S(=O)(=O)C(F)F)cn2)C[C@H](C)N1C(=O)OC1CC2(C1)CN(Cc1ccccc1)C2 [US20250092022, Compound 41]
4 | > 500 | C[C@@H]1CN(c2ncc(OCCO)cn2)C[C@H](C)N1C(=O)OC1CC2(C1)CN(Cc1ccccc1)C2 [US20250092022, Compound 52]
